Tests used:
skin = assay: Tolerance of the preparation by the subjects in both tests; format: in vivo, healthy female volunteers; conditions: topical 4% (weight/volume) preparation
Procedure: (§1) The test was conducted on two test groups, each one of which comprised six healthy female volunteers. In the first test group (group 1), four cutaneous test areas were defined on the arm of each subject, and microcirculation was first measured for 30 minutes before the preparation was added. The skin was then cut by scraping in all the four areas, and onto the skin was pressed a filter paper into which a solution had been absorbed that contained 14 μl/cm^2 of 4% (weight/volume) trimethylglycine in distilled water, or only distilled water (placebo). Subsequently, microcirculation was measured for 60 minutes at the erythematous, damaged points on the skin, treated with the solution. In the second test group (group 2), the subjects' microcirculation was measured at the erythema in the same way as above, but the irritation was here caused by 30-minute infrared irradiation (IR Philips 250 S lamps, spectrum 700 to 2500 nm, power 250 W, light energy 70 mW/cm^2, irradiation area 14 cm^2) in the four cutaneous areas defined on the upper back.

[1] = pure form; in water and in lower alcohols, such as methanol and ethanol; cited from earlier work
thermal skin irritation = assay: Thermal conductivity of the skin (microcirculation), infrared irradiation, group 2; format: in vivo, healthy female volunteers
Procedure: (§2) The effect of trimethylglycine on the skin was studied by measuring the thermal conductivity of the skin by a method described by A. Dittmar in Cutaneous investigation in health and disease. Non-invasive methods and instrumentation, ed. J. L. Lévêque, Marcel Dekker Inc., New York-Basel, 1989. The method correlates directly with microcirculation on the skin. Thermal conductivity (K) is measured from the skin with a specific Hematron® thermal sensor and transformed into an electric signal, which is recorded by a recorder. In thermal conductivity (ΔK), a significant level of variation is 0.1 mW/cm.°C.
In the second test group (group 2), the subjects' microcirculation was measured at the erythema in the same way as above, but the irritation was here caused by 30-minute infrared irradiation (IR Philips 250 S lamps, spectrum 700 to 2500 nm, power 250 W, light energy 70 mW/cm^2, irradiation area 14 cm^2) in the four cutaneous areas defined on the upper back.
(§3) The thermal conductivity values measured on each volunteer subject are shown in table 1 (group 1) and table 2 (group 2). Tables 1 and 2 show the mean values (n=6) of thermal conductivity (K expressed as mW/cm .°C.) in the treated area, placebo area, and untreated areas at different instances of measuring. In tables 1 and 2, the treated area means an area treated with a preparation containing trimethylglycine; untreated area 1 is an untreated area that is symmetric with the area treated with the preparation containing trimethylglycine; the placebo area means an area treated with a placebo; and untreated area 2 is an untreated area that is symmetric with the area treated with the placebo.
(§4) Per /cent (%) variations between the treated area and untreated area 1, and the placebo area and untreated area 2 were calculated for each volunteer subject 30 and 60 min after application of the product. The variations were calculated using the formula [formula]

[2] = system: mechanical skin irritation; assay: Thermal conductivity of the skin (microcirculation), skin cut by scraping, group 1; format: in vivo, healthy female volunteers; conditions: for % Variation, treated area/untreated area 1 (microcirculation): 4% (weight/volume) in distilled water, mean ± standard error; for % Variation, treated area/untreated area 1 (microcirculation) / Mean values of thermal conductivity (K), treated area: n=6
Procedure: as §2
as §1, with “solution.” for “solution. In the second test group (group 2), the subjects' microcirculation was measured at the erythema in the same way as above, but the irritation was here caused by 30-minute infrared irradiation (IR Philips 250 S lamps, spectrum 700 to 2500 nm, power 250 W, light energy 70 mW/cm^2, irradiation area 14 cm^2) in the four cutaneous areas defined on the upper back.”
as §3, §4

## C[N+](C)(C)CC(=O)[O-] [trimethylglycine]
skin
  Tolerance / sensitivity of the subjects: tolerated the trimethylglycine preparation well
[1]
  Solubility: readily soluble
Thermal skin irritation; group 2, t30 min, 4% (weight/volume) in distilled water, mean ± standard error, n=6
  % Variation, treated area/untreated area 1 (microcirculation): 23.5±11.8%
Thermal skin irritation; group 2, preparation containing trimethylglycine
  Effect on thermal erythema: no effect on thermal erythema
Thermal skin irritation; t0, before application of product, upper back, n=6
  Mean values of thermal conductivity (K), treated area: 3.13 ± 0.30 mW/cm · ° C.
Thermal skin irritation; t30, 30 min after application of 4% (weight/volume) trimethylglycine in distilled water, 30-minute infrared irradiation, n=6
  Mean values of thermal conductivity (K), treated area: 3.85 ± 0.31 mW/cm · ° C.
Thermal skin irritation; t60, 60 min after application of 4% (weight/volume) trimethylglycine in distilled water, 30-minute infrared irradiation, n=6
  Mean values of thermal conductivity (K), treated area: 3.60 ± 0.38 mW/cm · ° C.
[2]; group 1, t30 min
  % Variation, treated area/untreated area 1 (microcirculation): -8.9±8.6%
[2]; group 1, t60 min
  % Variation, treated area/untreated area 1 (microcirculation): -15.0±8.8%
[2]; group 1, 4% (weight/volume) in water, effect detected 60 min after the application
  Effect against mechanical erythema as compared with the placebo: effective against mechanical erythema
[2]; t0, before application of product, arm skin
  Mean values of thermal conductivity (K), treated area: 3.82 ± 0.59 mW/cm · ° C.
[2]; t30, 30 min after application of 4% (weight/volume) trimethylglycine in distilled water, 14 μl/cm^2, skin cut by scraping
  Mean values of thermal conductivity (K), treated area: 3.66 ± 0.69 mW/cm · ° C.
[2]; t60, 60 min after application of 4% (weight/volume) trimethylglycine in distilled water, 14 μl/cm^2, skin cut by scraping
  Mean values of thermal conductivity (K), treated area: 3.42 ± 0.41 mW/cm · ° C.

— US20020018788A1, “PREPARATION PROTECTING SKIN FROM MECHANICAL IRRITATION” (priority 1996, published 2002)
